In US20160193148A1, “LIPOSOMAL FORMULATIONS FOR THE TREATMENT OF BACTERIAL INFECTIONS” (UNIVERSITY OF GEORGIA RESEARCH FOUNDATION, INC., priority 2013, published 2016):
Where “and” joins values, the source holds several entries; their conditions need not be identical. Equal entries are not always repeated. Marks after values point to notes of the source that are not given here.

Experiment: BAL cell gentamicin concentrations after single IV or nebulized dose in foals
Conditions: BAL cells
Method: Eight healthy 5-7-week-old Quarter Horse foals were randomly assigned to one of 4 groups using a balanced Latin-square design. Foals were considered healthy on the basis of physical examinations, complete blood cell counts and plasma biochemical profiles. […] The liposome gentamicin formulation was nebulized using Nortev FLEXINEB. For each treatment, gentamicin was administered over a period of 15 minutes. There was a washout period of 7-14 days between each treatment.
For the BAL collection, foals were sedated with xylazine and butorphanol. Concentrations of gentamicin were measured in plasma and in bronchoalveolar cells using HPLC-MS.
Eight foals received a single IV or nebulized dose (6.6 mg/kg bwt) of FG^h or LG in a balanced Latin square design. Beginning at 5-7 weeks of age, every foal received each of the 4 possible drug-route combinations with a 14-day washout period between each administration. Intravenous FG and LG were diluted in 250 ml of sterile 0.9% saline and administered via a jugular catheter as a constant rate infusion over 15 min. Nebulized FG and LG were administered by inhalation over 15 minutes via a commercial equine nebulizer. To ensure equivalent rate of delivery, FG was diluted to the same volume as LG with sterile 0.9% saline. Particle size of nebulized LG was verified using laser diffraction. Blood samples for plasma separation were obtained from a catheter placed in the contralateral jugular vein prior to each drug administration, and at 5, 10, 20, 30, 45 minutes and 1, 1.5, 2, 3, 4, 6, 8, 12, 16, 24 and 48 hours after the end of the 15 minute IV infusion or nebulization period. Bronchoalveolar lavage (BAL) fluid was collected at 2, 4, 8, 24, and 48 hours. Foals were sedated with xylazine hydrochloride (0.5 mg/kg bwt IV) and butorphanol tartrate (0.07 mg/kg bwt IV) prior to collection of BAL fluid. Prior to analysis for gentamicin concentration, blood samples were centrifuged at 400×g for 10 minutes and the resultant plasma frozen at −80° C. until assayed.
A 10 mm diameter, 2.4 m BAL catheter^k was passed via nasal approach until wedged into a bronchus. The lavage solution consisted of 4 aliquots of 60 ml 0.9% saline solution infused and instantly aspirated. Immediately upon collection, the total volume of BAL fluid recovered was measured and a 3 ml aliquot saved in an EDTA tube from which total nucleated cell count was determined by use of a cell counter.^1 BAL fluid was immediately centrifuged at 400×g for 10 min. The BAL cells in the resultant pellet were washed, re-suspended in 500 μl of acetonitrile: 0.2% formic acid (1:1, v/v), vortexed, and frozen at −80° C. until assayed. Supernatant BAL fluid was also frozen at −80° C. until assayed. Before assaying, the cell pellet samples were thawed, vortexed vigorously and sonicated for 10 minutes to ensure complete cell lysis. The resulting suspension was centrifuged at 500×g for 10 minutes and the supernatant fluid was used to determine the intracellular concentrations of gentamicin.
Briefly, gentamicin was extracted from plasma (250 μl) and urine (500 μl) using protein precipitation with an equal volume of ice-cold 90:10 acetonitrile: 0.2% formic acid (v/v). Extracted samples were centrifuged (2° C. at 10,000×g for 10 min) twice. Two-hundred microliters of the supernatants were transferred to polypropylene inserts for injection. The supernatant derived from the lyzed BAL cell pellet was transferred to polypropylene inserts for direct injection without further processing. […] An aliquot of the resultant supernatant was then mixed with an equal volume of ice-cold acetonitrile, centrifuged (2° C. at 10,000×g for 10 minutes) and 200 μl was transferred to polypropylene inserts for injection. Calibration standards were prepared in drug-free foal plasma, BAL fluid or urine and then extracted as described above so that standard curves specific to each biologic matrix could be constructed.

For gentamicin sulfate [Free Gentamicin], the AUC0-t (IV) was 58.9 ± 41.5^a μg · h/ml, the C24 h (IV) was 1500 ± 1230 ng/mL and the “Tmax (median and range)” value (IV) was 2 (2-8)^a h. The AUC0-24 (IV, Table 3) was 58900 ± 41500 ng·h/mL, the C48 h (IV, Table 3) was 0.5 ± 0.6 µg/mL and the Cmax (IV, Table 3) was 3.0 ± 1.7 µg/mL. For the same substance, the C48 h (IV, Table 5) was 0.47 ± 0.62^a μg/ml, the Cmax (IV, Table 5, listed as FG) was 3.0±1.7 μg/ml and 2.98 ± 1.67^a μg/ml and the AUC0-24 (N (nebulized), Table 3) was 37200 ± 18900 ng·h/mL. The C48 h (N (nebulized), Table 3) was 0.3 ± 0.2 µg/mL, the Cmax (N (nebulized), Table 3) was 1.5 ± 0.6 µg/mL and the AUC0-t (Neb) was 37.2 ± 19.0^a μg · h/ml. For the same substance, the C24 h (Neb) was 1010 ± 570 ng/mL, the “Tmax (median and range)” value (Neb) was 3 (2-48)^a h and the C48 h (Neb, Table 5) was 0.32 ± 0.23^a μg/ml. For the same substance, the Cmax (Neb, Table 5, listed as FG) was 1.5±0.6 μg/ml and 1.49 ± 0.57^a μg/ml.
